The values that follow come from patent US9550763B2, “Heterocyclic ring and carbocyclic derivative” (Shionogi & Co., Ltd., priority 2012, dated 2017).

human P2X3 receptor, sequence (P56373 whole entry): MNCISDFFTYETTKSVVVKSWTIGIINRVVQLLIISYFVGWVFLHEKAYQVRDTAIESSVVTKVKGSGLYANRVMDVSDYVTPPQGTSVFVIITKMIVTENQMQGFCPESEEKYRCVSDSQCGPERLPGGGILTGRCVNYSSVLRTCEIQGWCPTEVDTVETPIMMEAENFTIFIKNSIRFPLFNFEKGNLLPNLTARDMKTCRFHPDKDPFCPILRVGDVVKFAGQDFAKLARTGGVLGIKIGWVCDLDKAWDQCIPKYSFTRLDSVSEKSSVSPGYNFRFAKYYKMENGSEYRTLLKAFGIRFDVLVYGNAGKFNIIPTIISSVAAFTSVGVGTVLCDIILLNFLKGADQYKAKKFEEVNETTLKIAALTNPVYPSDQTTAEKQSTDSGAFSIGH

The target in the test is human P2X3 receptor (Homo sapiens (Human), UniProt P56373). As to the kind of experiment: Evaluation of human P2X3 receptor inhibitory activity (Test Example 1-1, FDSS 3000, 96-well, 50 nM ATP). It is filed as cell-based. To be noted: human P2X3 receptor in C6BU-1 cells; Test Example 1-1 (compounds I-001 to I-300). The method, boiled down:
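C6BU-1 cells stably expressing human P2X3, loaded with 4 μM Fluo-3-AM (pH 7.5), preincubated 5 min with compound before 50 nM ATP challenge; fluorescence followed 4 min on FDSS 3000. IC50 derived from peak/baseline fluorescence ratio, no-compound as 0% and buffer-instead-of-ATP as 100% inhibition.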
One may read the IC50 as the concentration needed to halve the response being measured. Consider `CCn1c(=O)cc(Nc2ccc(Oc3cccc(C(N)=O)c3)cc2)n(Cc2ccc(Cl)cc2)c1=O` [Compound I-024], for which the IC50 is 14 nM.

In turn, `CCOC(=O)c1cccc(Oc2ccc(Nc3cc(=O)n(CC)c(=O)n3Cc3ccc(Cl)cc3)nc2)c1` [Compound I-044] yielded an IC50 of 103 nM.

As for `CCOC(=O)c1cnc(Nc2ccc(Oc3cccc(C(N)=O)n3)cc2)n(Cc2ccc(Cl)cc2)c1=O` [Compound I-043], the midpoint of inhibition, the IC50, lay at 7 nM.

With `CCC(=O)Nc1c[nH]/c(=N\c2ccc(Oc3ccnc(C(=O)OC)c3)cc2)n(Cc2ccc(Cl)cn2)c1=O` [Compound I-287], the IC50 came out at 356 nM.

In turn, `CC(=O)Nc1cnc(Nc2ccc(Oc3cccc(F)n3)cc2)n(Cc2ccc(Cl)cc2)c1=O` [Compound I-070] returned an IC50 of 28 nM.

Regarding `CCn1c(=O)cc(Nc2cc(C)c(Oc3cccc(C(=O)O)c3)cn2)n(Cc2ccc(Cl)cc2)c1=O` [Compound I-203], the IC50 was found to be 336 nM.

With `CN(C)CCC(=O)Nc1c[nH]/c(=N\c2ccc(Oc3ccon3)cc2)n(Cc2ccc(Cl)cc2)c1=O` [Compound I-185], the IC50 was 158 nM.

Compound `CN(C)C(=O)c1c[nH]/c(=N\c2ccc(Oc3cccc(C(=O)O)n3)cc2)n(Cc2ccc(Cl)cc2)c1=O` [Compound I-222] registered an IC50 of 47 nM.

Regarding `O=C(Nc1c[nH]/c(=N\c2ccc(Oc3ccon3)cc2)n(Cc2ccc(Cl)cc2)c1=O)C1CCOC1` (stereo not shown) [Compound I-212], the IC50 was 11 nM.

`O=C(Nc1c[nH]/c(=N\c2ccc(Oc3ccc(F)cn3)cc2)n(Cc2ccc(Cl)cc2)c1=O)C1COC1` [Compound I-214]: the IC50 came out at 13 nM.

`CCOC(=O)c1cnc(Nc2ccc(Oc3ncc(C(=O)O)s3)cc2)n(Cc2ccc(Cl)cc2)c1=O` [Compound I-059] came in with an IC50 of 6 nM.

The compound `COC(=O)[C@@H](C)Cn1c(=O)cc(Nc2ccc(Oc3ccon3)cc2)n(Cc2ccc(Cl)cc2)c1=O` [Compound I-114] yielded an IC50 of 17 nM.

Consider `O=c1c(-c2cccnc2)c[nH]/c(=N\c2ccc(Oc3ccon3)cc2)n1Cc1ccc(Cl)cc1` [Compound I-273], for which inhibition was half-maximal at 201 nM (IC50).

Regarding `CCC(=O)N(CC)c1c[nH]/c(=N\c2ccc(Oc3cccc(C#N)n3)cc2)n(Cc2ccc(Cl)cc2)c1=O` [Compound I-189], the IC50 stood at 12 nM.

For the compound `COC(=O)Nc1c[nH]/c(=N\c2ccc(Oc3cccc(C(N)=O)n3)cc2)n(Cc2ccc(Cl)cc2)c1=O` [Compound I-007], the IC50 came out at 23 nM.

For `CCOC(=O)c1c[nH]/c(=N\c2ccc(Oc3ccc(F)cn3)cc2)n(Cc2ccc(Cl)cc2)c1=O` [Compound I-128], the IC50 is 35 nM.

`CCCn1c(=O)cc(Nc2ccc(Oc3cccc(C(=O)OCC)c3)cn2)n(Cc2ccc(Cl)cc2)c1=O` [Compound I-166] had an IC50 of 169 nM.

`CCOC(=O)c1cnc(Oc2ccc(Nc3cc(=O)n(CC)c(=O)n3Cc3ccc(Cl)cc3)cc2)s1` [Compound I-010]: the IC50 came to 4 nM.

As to `CN/C(=N\C#N)Nc1c[nH]/c(=N\c2ccc(Oc3ccon3)cc2)n(Cc2ccc(Cl)cc2)c1=O` [Compound I-243], the IC50 was 557 nM.

Compound `CCc1c[nH]/c(=N\c2ccc(Oc3cccc(C#N)n3)c(C)c2)n(Cc2ccc(Cl)cc2)c1=O` [Compound I-130] had an IC50 of 32 nM.

In turn, `O=C(NC1CCOCC1)c1cn(Cc2ccc(Cl)cc2)c(Nc2ccc(Oc3cccc(F)n3)cc2)nc1=O` [Compound I-156] registered an IC50 of 6 nM.

The compound `O=C(Nc1c[nH]/c(=N\c2ccc(Oc3ccon3)cc2)n(Cc2ccc(Cl)cc2)c1=O)c1cc[nH]n1` [Compound I-231] came in with an IC50 of 388 nM.

Consider `CCc1oc2ccc(/N=c3\[nH]cc(C=O)c(=O)n3Cc3ccc(Cl)cc3)cc2c1C` [Compound I-045], for which the IC50 stood at 226 nM.

In turn, `CCc1oc2ccc(/N=c3\[nH]cc(C=NN4CCOCC4)c(=O)n3Cc3ccc(Cl)cc3)cc2c1C` [Compound I-048] registered a half-inhibitory concentration (IC50) of 22 nM.

With `CCC(=O)Nc1c[nH]/c(=N\c2ccc(Oc3ccnc(C(N)=O)c3)cc2)n(Cc2ccc(Cl)cc2)c1=O` [Compound I-106], it took 7 nM to reach half-maximal inhibition (IC50).
